Measurements taken from patent US9045506B2, “Diphosphonate compound and a method for preparing the same and an application of the same” (Chengdu Yunke Pharmaceutical Co., Ltd., priority 2010, dated 2015).
Marks after values point to notes of the source that are not given here.

Assays:
osteoblasts = test: Calcium deposition assay (alizarin red method); assay type: cell-based; conditions: for calcium deposition of osteoblasts (in words): lower / low concentration; for ARS concentration / calcium nodule size: 5 d, n = 4, x ± s
Protocol: Next, each well is added with 1 mL extract (extract preparation: 800 mL 10% acetic acid with 200 mL anhydrous ethyl alcohol), and extracted for 30 min-45 min, kept in dark, shaken slightly, the absorbance of 450 nm wavelength is measured and recorded. […] As alizarin red S and calcium are linear correlated, the calcium deposition is evaluated according to the alizarin red S concentration.

osteoblasts MG63 = test: Osteoblast proliferation, MTT method; assay type: cell-based; conditions: for Cell proliferation (MTT method), absorbance value under 490 nm: MG63, n = 4, x ± s; for effect on MG63 cell proliferation (in words): cocultured 72 h, P<0.05 vs control groups
Protocol: MTT method is used to evaluate the effects of the drug on the activity of proliferation of osteoblasts MG63, wherein each well of 96-well plate is added with fresh MTT (5 mg/mL) 100 μL, incubated under 37° C. for 4 h, and vibrated every a period of time, then the supernatant is removed, and each well is added with 200 μL DMSO (DMSO, Sigma corp.), and vibrated on micro-oscillator for 10 min, and equivalent amount of liquid is transferred to an new plate, and the absorbance value under 490 nm is measured, referring to table 1.

osteoclasts [1] = test: Osteoclast cell formation, counting of TRAP staining positive cells; assay type: cell-based, Japanese White Rabbit; conditions: for OC cell formation, TRAP staining positive cells counted: n = 6, x ± s
Protocol: (§1) The osteoclasts is cultured using a modified Chambers method, the new-born Japanese White Rabbit (1 week-age, provided by Experimental Animal Center of West China Medical Center of Sichuan University) is sacrificed by neck dislocation, and dipped in 75% ethanol for 5 min, long bones are taken out under sterile condition, and soft tissue, periosteum as well as osteoepiphysis on the bone surface are removed in D-Hanks balanced salt solution, clean the bone shaft with α-MEM 2 times, and then cut off the long bone longitudinally in α-MEM full media (containing 15% fetal calf serum, penicillin 100 U/mL, streptomycin […], 25 m MHEPES, pH 7.0-7.2), scrape the medullar cavity of the bone gently until it is clean, and use a pipette (5 mL syringe, 25 G syringe needle) to rinse the medullar cavity repeatedly with culture media, and then the rinse solution is collected and filtered with cell strainer to remove bone fragment, and centrifuged at 1000 rpm for 5 min, the precipitate is suspended by 10 mL α-MEM, a hematocytometer is used for cell counting, the cell density in suspension is adjusted to 1×10^7/mL, and inoculate the cells in 6-well plates, and co-cultured with glass slide or bone slice, after 60 min the culture media was replaced with α-MEM induction culture media (containing 15% fetal bovine serum, 10 nM 1, 25-(OH)2VitD3, penicillin 100 U/mL, streptomycin 100 μg/mL, 25 mM HEPES, pH 7.0-7.2), the culture media is replaced every 3 days.
Each group of osteoclasts is performed with tartrate-resistant acid phosphatase (TRAP) staining, observed in optical microscope, and the TRAP staining positive cells are counted.

osteoclasts [2] = test: Osteoclastic absorption, resorption pit size on bone slices; assay type: cell-based, Japanese White Rabbit; conditions: for formation and size of resorption pit of the osteoclast: 5 days' culture, n = 6, x ± s
Protocol: as §1

[3] = relative to Etidronate; cited from earlier work

## O=c1c2cc(Cl)ccc2[se]n1-c1ccc(CC(P(=O)(O)O)P(=O)(O)O)cc1 [SC-9, 4-(3-carbonyl-5-chlorobenzo[d][1,2]selenazole-2(3H))-benzyl-methylene diphosphonic acid]
osteoblasts
  calcium deposition of osteoblasts (in words): increases the calcium deposition of osteoblasts obviously

## O=c1c2ccccc2[se]n1-c1ccc(CCC(P(=O)(O)O)P(=O)(O)O)cc1 [SC-13, 4-(3-carbonylbenzo[d][1,2]selenazole-2(3H))-phenylethyl-methylenediphosphonic acid]
osteoblasts
  calcium deposition of osteoblasts (in words): increases the calcium deposition of osteoblasts obviously

## NCCCC(O)(P(=O)(O)O)P(=O)(O)O [Alen, alendronate sodium, reference compound]
Osteoblasts MG63; 10^−5, 10^−7 mol/L for 72 h, P<0.01 vs control groups
  cell proliferation activity (in words): cell proliferation activity is inhibited in different degrees
Osteoblasts MG63; range of concentrations, within 48 h
  influence on proliferation of MG63 cells (in words): no influence on proliferation of MG63 cells
osteoblasts
  calcium deposition of osteoblasts (in words): not found that Alen group of low concentration can enhance the calcium deposition of osteoblasts
Osteoclasts [1]; all concentrations
  formation of osteoclasts compared with blank (in words): can inhibit the formation of osteoclasts
Osteoclasts [2]; p<0.01
  resorption pits size compared with blank (in words): decrease obviously

## 4-(3-carbonylcyclohexano[d][1,2]selenazole-2(3H))-benzyl-1-hydroxyl-methylenediphosphonic acid [SC-8]
Osteoblasts MG63; 10^−5 mol/L, 24 h
  Cell proliferation (MTT method), absorbance value under 490 nm: 0.376 ± 0.009
Osteoblasts MG63; 10^−5 mol/L, 48 h
  Cell proliferation (MTT method), absorbance value under 490 nm: 0.412 ± 0.007
Osteoblasts MG63; 10^−5 mol/L, 72 h
  Cell proliferation (MTT method), absorbance value under 490 nm: 0.342 ± 0.008
Osteoblasts MG63; 10^−7 mol/L, 24 h
  Cell proliferation (MTT method), absorbance value under 490 nm: 0.373 ± 0.010
Osteoblasts MG63; 10^−7 mol/L, 48 h
  Cell proliferation (MTT method), absorbance value under 490 nm: 0.439 ± 0.012
Osteoblasts MG63; 10^−7 mol/L, 72 h
  Cell proliferation (MTT method), absorbance value under 490 nm: 0.709 ± 0.010
Osteoblasts MG63; 10^−9 mol/L, 24 h
  Cell proliferation (MTT method), absorbance value under 490 nm: 0.355 ± 0.009
Osteoblasts MG63; 10^−9 mol/L, 48 h
  Cell proliferation (MTT method), absorbance value under 490 nm: 0.421 ± 0.008
Osteoblasts MG63; 10^−9 mol/L, 72 h
  Cell proliferation (MTT method), absorbance value under 490 nm: 0.773 ± 0.013
Osteoblasts MG63; 10^−9 mol/L
  effect on MG63 cell proliferation (in words): enhance MG63 cell proliferation
osteoblasts; 10^−5 mol/L
  ARS concentration: 309 ± 13 µg/mL
  calcium nodule size: 1.32 ± 0.11 mm^2
osteoblasts; 10^−7 mol/L
  ARS concentration: 354 ± 23 µg/mL
  calcium nodule size: 1.66 ± 0.16 mm^2
osteoblasts; 10^−9 mol/L
  ARS concentration: 395 ± 17 µg/mL
  calcium nodule size: 1.96 ± 0.19* mm^2
Osteoclasts [1]; 10^−5 mol/L, 3 d
  OC cell formation, TRAP staining positive cells counted: 6 ± 2
Osteoclasts [1]; 10^−5 mol/L, 5 d
  OC cell formation, TRAP staining positive cells counted: 9 ± 2
Osteoclasts [1]; 10^−7 mol/L, 3 d
  OC cell formation, TRAP staining positive cells counted: 10 ± 2
Osteoclasts [1]; 10^−7 mol/L, 5 d
  OC cell formation, TRAP staining positive cells counted: 15 ± 4
Osteoclasts [1]; 10^−9 mol/L, 3 d
  OC cell formation, TRAP staining positive cells counted: 12 ± 3
Osteoclasts [1]; 10^−9 mol/L, 5 d
  OC cell formation, TRAP staining positive cells counted: 21 ± 6
Osteoclasts [2]; 10^−5 mol/L
  formation and size of resorption pit of the osteoclast: 12.23 ± 3.06
Osteoclasts [2]; 10^−7 mol/L
  formation and size of resorption pit of the osteoclast: 64.45 ± 8.77
Osteoclasts [2]; 10^−9 mol/L
  formation and size of resorption pit of the osteoclast: 118.25 ± 14.73

## O=c1c2ccccc2[se]n1-c1ccc(CC(O)(P(=O)(O)O)P(=O)(O)O)cc1 [SC-2, 4-(3-carbonylbenzo[d][1,2]selenazole-2(3H))-benzyl-methylene-1-hydroxyl-methylene diphosphonic acid]
Osteoblasts MG63; 10^−9 mol/L
  effect on MG63 cell proliferation (in words): enhance MG63 cell proliferation
osteoblasts
  calcium deposition of osteoblasts (in words): increases the calcium deposition of osteoblasts obviously

## O=P(O)(O)C(O)(Cn1ccnc1)P(=O)(O)O [Zoledronate]
[3]
  bone affinity, times stronger than Etidronate: over 10000 times

## O=c1c2ccccc2[se]n1-c1ccc(CCC(O)(P(=O)(O)O)P(=O)(O)O)cc1 [SC-14, 4-(3-carbonylbenzo[d][1,2]selenazole-2(3H))-phenylethyl-1-hydroxyl-methylene diphosphonic acid]
osteoblasts
  calcium deposition of osteoblasts (in words): increases the calcium deposition of osteoblasts obviously

## O=c1c2ccccc2[se]n1-c1ccc(CC(P(=O)(O)O)P(=O)(O)O)cc1 [SC-1, 4-(3-carbonylbenzo[d][1,2]selenazole-2(3H))-benzyl-methylene diphosphonic acid]
Osteoblasts MG63; 10^−9 mol/L
  effect on MG63 cell proliferation (in words): enhance MG63 cell proliferation
osteoblasts
  calcium deposition of osteoblasts (in words): increases the calcium deposition of osteoblasts obviously

## O=c1c2ccccc2[se]n1Cc1ccc(CC(P(=O)(O)O)P(=O)(O)O)cc1 [SC-11, 4-(2-methylbenzo[d][1,2]selenazole-3 (2H)-ketone)-benzyl-methylene diphosphonic acid]
osteoblasts
  calcium deposition of osteoblasts (in words): increases the calcium deposition of osteoblasts obviously

## O=c1c2cc(Cl)ccc2[se]n1-c1ccc(CC(O)(P(=O)(O)O)P(=O)(O)O)cc1 [SC-10, 4-(3-carbonyl-5-chlorobenzo[d][1,2]selenazole-2(3H))-benzyl-1-hydroxyl-methylene diphosphonic acid]
osteoblasts
  calcium deposition of osteoblasts (in words): increases the calcium deposition of osteoblasts obviously

## O=c1c2ccccc2sn1-c1ccc(CC(P(=O)(O)O)P(=O)(O)O)cc1 [SC-15, 4-(3-carbonylbenzo[d][1,2]sulfonazole-2(3H))-benzyl-methylene diphosphonic acid]
osteoblasts
  calcium deposition of osteoblasts (in words): increases the calcium deposition of osteoblasts obviously

## O=c1c2ccccc2[se]n1Cc1ccc(CC(O)(P(=O)(O)O)P(=O)(O)O)cc1 [SC-12, 4-(2-methylbenzo[d][1,2]selenazole-3 (2H)-ketone)-benzyl-1-hydroxyl-methylene diphosphonic acid]
osteoblasts
  calcium deposition of osteoblasts (in words): increases the calcium deposition of osteoblasts obviously
